# Reference: ChEMBL document CHEMBL1201862, “PubChem BioAssay data set” (2004)
# Active and inactive are the calls of the source.
# Key:
# [1] = inhibitors of intracellular T. cruzi replication, confirmation, NIH3T3 host cells, beta-gal luminescence (AID 2044); assay type: functional, cell-based;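 note: intracellular parasites grown in NIH/3T3 mouse fibroblasts as host cells; luminescent beta-galactosidase reporter signal from transgenic T. cruzi replicating inside host cells; inhibitors lower the luminescence signal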
# [2] = cytotoxicity toward NIH3T3 fibroblasts, dose response, counter-screen, cell-based, ATP luminescence, mouse fibroblasts (AID 2010); assay type: functional;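 note: cells exposed to compound for about 90 hours before reading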
# [3] = target: Botulinum neurotoxin type F (Clostridium botulinum, UniProt P30996); assay: High-throughput multiplex microsphere dose response for inhibitors of toxin protease, specifically Botulinum neurotoxin light chain F protease, compounds from Cherry Pick 02.; assay type: functional; details: read-out: EC50_MICROM
# [4] = target: T1, Long-chain-fatty-acid--AMP ligase FadD28 (Mycobacterium tuberculosis, UniProt P9WQ59); assay: Fluorescence polarization aasay to screen for inhibitors that compete for the binding of FadD28 to a bisubstrate Measured in Biochemical System Using Plate Reader - 2147-01_Inhibitor_Dose_CherryPick_Activity.; assay type: functional, Mycobacterium tuberculosis H37Rv
# T1 sequence (P9WQ59 whole entry): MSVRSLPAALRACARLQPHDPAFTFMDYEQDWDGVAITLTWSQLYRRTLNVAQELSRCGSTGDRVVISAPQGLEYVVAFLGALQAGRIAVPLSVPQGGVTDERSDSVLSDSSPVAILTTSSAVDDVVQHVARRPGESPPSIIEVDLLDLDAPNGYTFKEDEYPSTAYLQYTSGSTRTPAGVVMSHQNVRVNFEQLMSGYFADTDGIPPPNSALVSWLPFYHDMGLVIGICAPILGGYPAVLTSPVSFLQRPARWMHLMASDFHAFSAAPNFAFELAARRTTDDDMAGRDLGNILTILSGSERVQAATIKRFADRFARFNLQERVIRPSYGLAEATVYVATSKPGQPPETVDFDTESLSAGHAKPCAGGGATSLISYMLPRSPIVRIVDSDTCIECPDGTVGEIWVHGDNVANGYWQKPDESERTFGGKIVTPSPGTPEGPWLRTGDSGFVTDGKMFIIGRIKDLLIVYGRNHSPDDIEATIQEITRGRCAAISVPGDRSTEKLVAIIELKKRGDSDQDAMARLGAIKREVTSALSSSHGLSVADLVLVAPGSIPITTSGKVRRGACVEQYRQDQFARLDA
# [5] = test system: Streptococcus sp. 'group A'; assay: growth inhibition of control SK(-) GAS strain, dose response, counter-screen for streptokinase expression inhibitor project, luminescence, kanamycin, BacTiterGlo, confirmation (AID 1900); assay type: functional, organism-based
# Streptokinase A = target: T2, Streptokinase A (Streptococcus pyogenes serotype M1, UniProt P10520); assay: S. pyogenes streptokinase expression inhibitors, potency, dose response, plasminogen activation absorbance, OD405 (AID 1914); assay type: functional, Streptococcus pyogenes M1 GAS;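 note: secreted streptokinase activity via plasminogen activation per viability signal from cell pellet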
# T2 sequence (P10520 whole entry): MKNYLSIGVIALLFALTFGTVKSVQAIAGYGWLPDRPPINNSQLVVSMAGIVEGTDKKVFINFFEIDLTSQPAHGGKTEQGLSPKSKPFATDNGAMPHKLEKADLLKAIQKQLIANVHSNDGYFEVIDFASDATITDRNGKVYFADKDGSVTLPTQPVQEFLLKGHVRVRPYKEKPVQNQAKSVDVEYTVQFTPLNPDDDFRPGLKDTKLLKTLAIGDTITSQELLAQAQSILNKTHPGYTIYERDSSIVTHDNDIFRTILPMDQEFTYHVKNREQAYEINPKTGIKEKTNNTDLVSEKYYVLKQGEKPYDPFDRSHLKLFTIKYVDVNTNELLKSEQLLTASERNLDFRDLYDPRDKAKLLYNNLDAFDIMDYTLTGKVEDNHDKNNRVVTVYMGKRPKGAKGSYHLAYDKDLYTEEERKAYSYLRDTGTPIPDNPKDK
# Streptococcus = assay: Group A Streptococcus viability loss, dose response, counter-screen for streptokinase expression inhibitor project, luminescence, BacTiterGlo (AID 1915); assay type: functional, organism-based;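 note: potency for reduction of bacterial viability or growth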
# [6] = target: Disintegrin and metalloproteinase domain-containing protein 17 (Homo sapiens, UniProt P78536); assay: exosite inhibitors of ADAM17, dose response, biochemical (AID 743260)
# Protein S100-A4 = Protein S100-A4 (Homo sapiens, UniProt P26447); assay: S100A4-myosin IIA binding inhibitor potency, dose response, biochemical, fluorescence polarization, cherry-picked hits (AID 687001); assay type: functional
# [7] = target: Fructose-bisphosphate aldolase (Mycobacterium tuberculosis, UniProt P9WQA3); assay: Fluorescence-based biochemical high throughput dose response assay for inhibitors of the fructose-bisphosphate aldolase (FBA) of M. tuberculosis.; assay type: functional
# [8] = miR-122 activators in hepatoma reporter cells, dose response, cell-based, Huh7 psiCHECK-miR122, Renilla luciferase, cherry-picked (AID 651956); assay type: functional;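 note: huh7 hepatoma cells stably carrying a psiCHECK-2 miR-122 sensor plasmid; renilla luciferase signal reporting endogenous miR-122 activity after 48 h compound exposure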
# [9] = HEK293T cytotoxicity, dose response, cytotoxicity control for miR-122 modulator project, cell-based, inhibitor set, cherry-pick, set 2 (AID 720697); assay type: functional
# [10] = HEK293T cytotoxicity, dose response, cytotoxicity control for miR-122 modulator project, cell-based, activator set, cherry-pick (AID 720690); assay type: functional;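 note: HEK293T human cells scored for general mammalian cytotoxicity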
# Beta-lactamase [11] = target: T3, Beta-lactamase (Pseudomonas aeruginosa, UniProt Q79MP6)
# Beta-lactamase [12] = target: T4, Beta-lactamase (Salmonella choleraesuis (strain SC-B67), UniProt Q5J463)
# [13] = target: T5, Replicative DNA helicase DnaB (Mycobacterium tuberculosis, UniProt P9WMR3); assay: DnaB intein splicing inhibitors, dose response, biochemical, cell-free fluorescence (AID 449749); assay type: functional
# T5 sequence (P9WMR3 whole entry): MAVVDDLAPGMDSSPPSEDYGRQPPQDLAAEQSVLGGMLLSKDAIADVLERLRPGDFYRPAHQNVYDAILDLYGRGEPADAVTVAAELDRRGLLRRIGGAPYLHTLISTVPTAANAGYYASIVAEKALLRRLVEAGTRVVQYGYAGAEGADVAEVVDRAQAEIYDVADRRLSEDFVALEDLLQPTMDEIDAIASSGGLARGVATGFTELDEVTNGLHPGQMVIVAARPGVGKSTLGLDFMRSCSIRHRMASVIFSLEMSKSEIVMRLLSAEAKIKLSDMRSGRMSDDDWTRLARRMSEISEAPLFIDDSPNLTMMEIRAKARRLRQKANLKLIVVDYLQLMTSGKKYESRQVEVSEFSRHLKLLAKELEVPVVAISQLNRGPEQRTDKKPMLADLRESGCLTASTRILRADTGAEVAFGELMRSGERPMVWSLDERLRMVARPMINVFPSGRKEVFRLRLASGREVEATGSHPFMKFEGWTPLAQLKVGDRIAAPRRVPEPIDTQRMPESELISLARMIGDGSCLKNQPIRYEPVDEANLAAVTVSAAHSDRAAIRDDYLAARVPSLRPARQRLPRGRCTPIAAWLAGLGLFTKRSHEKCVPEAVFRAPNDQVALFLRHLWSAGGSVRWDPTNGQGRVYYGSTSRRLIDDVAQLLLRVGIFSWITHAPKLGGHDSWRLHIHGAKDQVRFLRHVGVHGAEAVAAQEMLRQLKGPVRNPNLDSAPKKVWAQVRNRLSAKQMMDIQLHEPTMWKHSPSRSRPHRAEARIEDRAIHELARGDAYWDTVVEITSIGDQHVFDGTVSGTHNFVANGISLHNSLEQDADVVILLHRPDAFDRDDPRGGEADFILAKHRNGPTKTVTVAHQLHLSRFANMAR
# Protein RecA = target: T6, Protein RecA (Mycobacterium tuberculosis, UniProt P9WHJ3); assay: Fluorescence Cell-Free Homogeneous Dose Retest to Identify Inhibitors of RecA-Intein Splicing Activity. [Related pubchem assays (depositor defined):AID2097, AID2223, AID489010, AID492950]; assay type: functional
# T6 sequence (P9WHJ3 whole entry): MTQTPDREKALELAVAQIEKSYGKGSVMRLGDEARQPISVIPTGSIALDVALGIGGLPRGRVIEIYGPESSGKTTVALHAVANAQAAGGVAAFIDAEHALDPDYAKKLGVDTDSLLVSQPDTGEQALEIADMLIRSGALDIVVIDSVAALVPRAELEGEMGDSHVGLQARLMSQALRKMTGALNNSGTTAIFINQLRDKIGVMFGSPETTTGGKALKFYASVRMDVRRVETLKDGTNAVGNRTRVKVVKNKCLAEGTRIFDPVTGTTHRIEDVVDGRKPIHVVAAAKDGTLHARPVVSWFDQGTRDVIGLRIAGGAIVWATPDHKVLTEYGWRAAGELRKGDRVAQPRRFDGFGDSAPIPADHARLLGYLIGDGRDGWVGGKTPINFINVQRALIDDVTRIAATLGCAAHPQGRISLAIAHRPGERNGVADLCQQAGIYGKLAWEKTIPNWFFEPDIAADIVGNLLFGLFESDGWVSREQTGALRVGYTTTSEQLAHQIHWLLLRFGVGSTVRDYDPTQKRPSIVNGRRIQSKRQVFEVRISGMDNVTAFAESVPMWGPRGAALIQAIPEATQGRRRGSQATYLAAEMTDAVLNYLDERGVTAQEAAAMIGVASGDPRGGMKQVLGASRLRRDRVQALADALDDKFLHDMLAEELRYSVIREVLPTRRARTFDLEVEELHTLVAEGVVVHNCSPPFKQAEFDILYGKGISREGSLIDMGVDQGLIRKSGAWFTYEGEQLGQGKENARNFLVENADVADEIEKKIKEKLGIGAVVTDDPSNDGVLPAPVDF
# [14] = target: T7, Sentrin-specific protease 8 (Homo sapiens, UniProt Q96LD8); assay type: functional
# T7 sequence (Q96LD8 whole entry): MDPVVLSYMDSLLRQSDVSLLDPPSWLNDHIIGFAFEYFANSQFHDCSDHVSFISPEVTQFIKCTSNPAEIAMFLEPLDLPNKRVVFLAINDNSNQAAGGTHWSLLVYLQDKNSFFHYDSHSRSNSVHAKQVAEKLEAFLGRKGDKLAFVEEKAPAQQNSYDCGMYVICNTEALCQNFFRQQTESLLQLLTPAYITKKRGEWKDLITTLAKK
# [15] = target: T7, Sentrin-specific protease 8; assay type: functional; remark: listed apart in the source
# Vero = assay: Vero cell toxicity, dose response, cytotoxicity control, plate reader, cherry-pick samples (AID 687020); assay type: functional, cell-based; details: Chlorocebus sabaeus
# [16] = Luminescence Cell-Based Dose Retest to Confirm Inhibitors of Cancer Stem Cells. [Related pubchem assays (depositor defined):AID2717, AID2721]; assay type: functional; details: Homo sapiens
# Cryptococcus neoformans = assay: PubChem AID 686997; assay type: functional, organism-based
# Beta-lactamase [17] = target: T4, Beta-lactamase; assay: Epi-absorbance-based counterscreen for selective VIM-2 inhibitors: dose response biochemical high throughput screening assay to identify inhibitors of TEM-1 serine-beta-lactamase.
# Beta-lactamase [18] = target: T3, Beta-lactamase; assay: IMP-1 metallo-beta-lactamase inhibitors, dose response, selectivity assay for VIM-2 inhibitor project, biochemical, epi-absorbance (AID 1920)
# Beta-lactamase [19] = target: T3, Beta-lactamase; assay: […] counterscreen for selective VIM-2 inhibitors: dose response biochemical high throughput screening assay to identify inhibitors of IMP-1 metallo-beta-lactamase.
# [20] = target: FAD-linked sulfhydryl oxidase ALR (Homo sapiens, UniProt P55789); assay: inhibitors of human ALR sulfhydryl oxidase, dose response, biochemical, H2O2 detection, luminescence, cherry-pick (AID 493248)
# Chain of FAD-linked sulfhydryl oxidase ALR (P55789 whole entry): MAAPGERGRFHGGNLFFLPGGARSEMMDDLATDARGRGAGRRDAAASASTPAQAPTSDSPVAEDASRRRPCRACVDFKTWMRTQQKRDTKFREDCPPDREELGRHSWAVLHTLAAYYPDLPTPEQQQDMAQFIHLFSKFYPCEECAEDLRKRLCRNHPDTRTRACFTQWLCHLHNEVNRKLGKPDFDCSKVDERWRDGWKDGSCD
# T3 sequence (Q79MP6 whole entry): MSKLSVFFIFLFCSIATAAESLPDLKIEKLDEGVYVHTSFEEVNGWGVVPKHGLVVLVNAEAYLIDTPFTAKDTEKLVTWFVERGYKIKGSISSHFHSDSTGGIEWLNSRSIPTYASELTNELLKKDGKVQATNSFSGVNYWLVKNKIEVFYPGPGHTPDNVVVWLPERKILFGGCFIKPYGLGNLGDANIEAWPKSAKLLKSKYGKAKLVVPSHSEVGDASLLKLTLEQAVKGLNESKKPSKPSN
# T4 sequence (Q5J463 whole entry): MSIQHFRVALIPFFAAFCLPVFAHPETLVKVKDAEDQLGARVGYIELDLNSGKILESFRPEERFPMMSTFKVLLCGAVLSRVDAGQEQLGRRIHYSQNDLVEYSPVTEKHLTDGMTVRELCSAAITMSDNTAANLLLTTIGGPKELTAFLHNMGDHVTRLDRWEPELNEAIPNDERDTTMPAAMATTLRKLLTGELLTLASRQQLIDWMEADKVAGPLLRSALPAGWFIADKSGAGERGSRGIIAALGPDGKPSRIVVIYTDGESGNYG
# Chain of Disintegrin and metalloproteinase domain-containing protein 17 (P78536 whole entry, the tested form may be a part): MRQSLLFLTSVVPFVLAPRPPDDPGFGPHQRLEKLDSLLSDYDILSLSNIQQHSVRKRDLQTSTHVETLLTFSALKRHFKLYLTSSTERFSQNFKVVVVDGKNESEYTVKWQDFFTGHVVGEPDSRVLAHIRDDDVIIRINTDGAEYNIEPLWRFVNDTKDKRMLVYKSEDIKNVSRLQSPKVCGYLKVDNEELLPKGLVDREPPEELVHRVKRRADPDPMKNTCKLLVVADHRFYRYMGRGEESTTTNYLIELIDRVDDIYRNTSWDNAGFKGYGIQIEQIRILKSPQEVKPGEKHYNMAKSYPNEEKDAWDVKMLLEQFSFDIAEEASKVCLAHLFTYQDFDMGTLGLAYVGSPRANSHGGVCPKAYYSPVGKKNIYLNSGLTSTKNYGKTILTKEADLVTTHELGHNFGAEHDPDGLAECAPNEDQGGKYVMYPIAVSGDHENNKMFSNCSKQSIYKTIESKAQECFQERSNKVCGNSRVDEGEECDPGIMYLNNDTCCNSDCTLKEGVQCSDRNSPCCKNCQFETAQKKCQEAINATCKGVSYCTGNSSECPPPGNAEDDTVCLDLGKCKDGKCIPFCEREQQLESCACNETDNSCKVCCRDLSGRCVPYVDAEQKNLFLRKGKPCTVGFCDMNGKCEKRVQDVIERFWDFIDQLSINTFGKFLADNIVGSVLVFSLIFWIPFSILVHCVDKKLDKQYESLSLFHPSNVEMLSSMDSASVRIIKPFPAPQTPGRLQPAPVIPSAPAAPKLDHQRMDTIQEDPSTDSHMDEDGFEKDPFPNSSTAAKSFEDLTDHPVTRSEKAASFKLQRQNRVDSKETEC
# Chain of Fructose-bisphosphate aldolase (P9WQA3 whole entry): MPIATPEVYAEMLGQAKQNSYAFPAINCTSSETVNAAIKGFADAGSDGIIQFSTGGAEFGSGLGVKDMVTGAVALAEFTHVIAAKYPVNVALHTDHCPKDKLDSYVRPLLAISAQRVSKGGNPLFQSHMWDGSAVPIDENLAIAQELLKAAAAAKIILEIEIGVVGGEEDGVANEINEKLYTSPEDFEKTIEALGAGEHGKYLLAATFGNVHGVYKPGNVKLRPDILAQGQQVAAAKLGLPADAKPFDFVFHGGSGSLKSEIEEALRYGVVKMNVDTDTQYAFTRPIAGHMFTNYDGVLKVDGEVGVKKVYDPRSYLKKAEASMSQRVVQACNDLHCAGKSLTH
# Chain of Protein S100-A4 (P26447 whole entry): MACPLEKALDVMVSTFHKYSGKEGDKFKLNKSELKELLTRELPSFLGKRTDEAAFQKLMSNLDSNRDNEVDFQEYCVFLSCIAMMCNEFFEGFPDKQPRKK
# Chain of Botulinum neurotoxin type F (P30996 1-436 limits assumed): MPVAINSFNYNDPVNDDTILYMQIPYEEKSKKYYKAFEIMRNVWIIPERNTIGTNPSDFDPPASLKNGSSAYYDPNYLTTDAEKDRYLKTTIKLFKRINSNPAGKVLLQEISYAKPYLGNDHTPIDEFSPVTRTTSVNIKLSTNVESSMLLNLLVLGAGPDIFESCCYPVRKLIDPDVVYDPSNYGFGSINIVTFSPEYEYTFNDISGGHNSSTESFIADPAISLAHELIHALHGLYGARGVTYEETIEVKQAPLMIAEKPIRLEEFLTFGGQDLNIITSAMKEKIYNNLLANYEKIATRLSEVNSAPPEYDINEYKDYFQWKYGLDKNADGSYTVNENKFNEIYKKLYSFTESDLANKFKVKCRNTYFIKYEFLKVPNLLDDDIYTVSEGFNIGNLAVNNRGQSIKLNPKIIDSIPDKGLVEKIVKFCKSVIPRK
structure (smiles),measurement,setting,value
CCc1cccc2c(C(=O)COC(=O)c3ccc(O)cc3)c[nH]c12,EC50,[1],2.89 µM (active)
same,EC50,[2],9.37 µM (active)
same,EC50,[3],> 20 µM (inactive)
same,AC50,[4],26.2 µM (active)
Cc1cc(SCC(=O)c2ccc(O)c(O)c2)n2nc(C)c(-c3ccccc3)c2n1,EC50,[5],7.32 µM (active)
same,EC50,Streptokinase A,> 150 µM (not active)
same,EC50,Streptococcus,13.9 µM (active)
same,IC50,[6],> 69.5 µM (inactive)
COc1cccc2c1C(=O)c1c(O)c3c(c(O)c1C2=O)CC(O)(C(C)=O)CC3OC1CC(O)C(O)C(C)O1 (stereo unspecified),AC50,Protein S100-A4,0.395 µM (active)
Cc1ccc2c(C)cc[n+](CCCS(=O)(=O)[O-])c2c1,IC50,[7],5.92 µM (active)
C[C@@H]1CN([C@H](C)CO)C(=O)c2cc(NC(=O)Nc3cccc4ccccc34)ccc2O[C@@H](C)CCCCO[C@@H]1CN(C)Cc1ccc2c(c1)OCO2,AC50,[8],9.62 µM (active)
same,AC50,[9],< 0.195 µM (active)
same,AC50,[10],22 µM (active)
CCc1cc(=O)oc2cc(C)c(CN3CCCC3)c(O)c12,IC50,Beta-lactamase [11],> 59.6 µM (inactive)
same,IC50,Beta-lactamase [12],> 59.6 µM (inactive)
COc1cc(C(c2c(C)n[nH]c2O)c2c(C)n[nH]c2O)ccc1OS(=O)(=O)c1ccccc1,AC50,[13],0.402 µM (active)
same,EC50,Protein RecA,0.217 µM (active)
same,IC50,[14],45.2 µM (active)
same,IC50,[15],72.9 µM (inactive)
CCCCNC(=O)O[C@H]1C[C@@H]2CCN3C(=O)CCC[C@H]([C@H]1Cc1ccccc1)[C@H]23,AC50,Vero,38.6 µM (active)
COc1ccc(C(=O)NC(=S)Nc2ccccc2N2CCCCC2)cc1[N+](=O)[O-],AC50,[16],0.549 µM (active)
same,AC50,Cryptococcus neoformans,> 70 µM (inactive)
COc1cccc(-n2c(S)nnc2CNC(=O)OC(C)(C)C)c1,IC50,Beta-lactamase [17],> 59.6 µM (inactive)
same,IC50,Beta-lactamase [18],> 59.6 µM (inactive)
same,IC50,Beta-lactamase [19],> 59.6 µM (inactive)
same,AC50,[20],12.1 µM (active)
